Experimental findings from patent publication US20030083271A1, “Topoisomerase I selective cytotoxic sugar derivatives of indolopyrrolocarbazoles” (priority 2001, published 2003) are described below.

For experiment [1], the target named is T1, purified human topoisomerase I (Homo sapiens, UniProt P11387).
T1 construct: purchased Topogen
T1 sequence (P11387 1-765): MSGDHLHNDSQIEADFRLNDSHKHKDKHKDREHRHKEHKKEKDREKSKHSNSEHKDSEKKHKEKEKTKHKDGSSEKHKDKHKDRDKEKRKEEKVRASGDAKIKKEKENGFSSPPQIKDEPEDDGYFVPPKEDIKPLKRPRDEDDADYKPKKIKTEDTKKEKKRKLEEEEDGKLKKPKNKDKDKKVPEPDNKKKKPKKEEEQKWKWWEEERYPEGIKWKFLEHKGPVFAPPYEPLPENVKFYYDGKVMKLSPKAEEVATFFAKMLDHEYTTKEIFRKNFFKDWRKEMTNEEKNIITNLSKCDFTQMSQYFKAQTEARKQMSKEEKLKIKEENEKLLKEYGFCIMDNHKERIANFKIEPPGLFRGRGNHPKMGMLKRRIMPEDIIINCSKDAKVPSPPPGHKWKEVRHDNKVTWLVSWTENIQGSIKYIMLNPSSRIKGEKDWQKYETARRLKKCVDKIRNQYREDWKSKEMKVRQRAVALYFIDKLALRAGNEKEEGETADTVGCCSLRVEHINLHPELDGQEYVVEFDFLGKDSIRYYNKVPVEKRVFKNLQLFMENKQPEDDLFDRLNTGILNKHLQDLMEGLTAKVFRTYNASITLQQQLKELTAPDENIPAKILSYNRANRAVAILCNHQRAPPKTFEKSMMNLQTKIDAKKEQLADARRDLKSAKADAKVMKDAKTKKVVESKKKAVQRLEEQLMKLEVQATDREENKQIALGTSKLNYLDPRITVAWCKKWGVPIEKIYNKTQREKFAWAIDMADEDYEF
In words: Topoisomerase I-mediated single strand DNA break induction (in vitro). Conditions: median effect concentration for inducing single-strand breaks in the DNA substrate; read-out: Topo I EC50. Format: biochemical. On the procedure:
Topoisomerase I activity was measured as described below. The procedure for assaying compound-induced, topoisomerase I-mediated single strand breaks in DNA was essentially that described by Hsiang, et al., (J. Biol. Chem. 1985, 260, 14873-14878). Samples dissolved in 100% DMSO as either […] or 10 mg/ml solutions, unless otherwise stated, were diluted in Tris-EDTA buffer. Marine bacteriophage PM2 DNA (Boehringer Mannheim) was also diluted in Tris-EDTA buffer to a concentration of 0.02 μg/μl. Different dilutions of the compound being evaluated were mixed with diluted DNA and this mixture was added to […] (one unit of enzyme activity is defined as the amount capable of relaxing 100 ng of supercoiled DNA in approximately 30 minutes at 37° C.) aliquots of purified human topoisomerase I (Topogen) in 2X reaction buffer to start the reaction. The compound-DNA-enzyme mixture was incubated for 30 minutes at 37° C. before stopping the reaction with warm stop buffer containing sodium dodecyl sulfate and proteinase K (Sigma). These mixtures were allowed to incubate at 37° C. for another 10 minutes, at which time the mixtures were removed from the waterbath and extracted with a 24:1 mixture of chloroform/isoamyl alcohol. Following centrifugation, aliquots of the aqueous phases were placed in wells of a 0.9% agarose (SeaKem) gel in Tris-borate buffer containing 0.5 μg/ml of ethidium bromide and subjected to electrophoresis for 15 hours to separate the different topological isomers and nicked and broken DNAs. After destaining the gel in water, the ethidium bromide stained DNA reaction products were visualized by exposing the gel to UV irradiation. Negatives of the photographs of the irradiated gels were scanned with a densitometer and areas under the peaks were calculated in order to obtain percent single strand DNA break formation for each sample. A median effective concentration (EC50) was obtained for each compound by interpolation between points of the resulting dose-effect curve which defines the potency of the compound for its effect in inducing topoisomerase I-mediated single strand breaks in DNA. The topoisomerase I activities for certain compounds of the present invention are shown below in Table I.

For experiment [2], the system named is P388 murine leukemia cells. The experiment can be described thus: In vitro cell-based cytotoxicity, parental P388 cells. Conditions: Mus musculus, 72 h, median cytotoxic concentration, 3 days continuous exposure. On the procedure:
The proliferation inhibition activity against the murine P388 cell line was measured as follows. Evaluation of a soluble tetrazolium/formazan assay for cell growth and drug sensitivity in culture, using human and other tumor cell lines, was done according to the procedure described in Cancer Res. 1988, 48, 4827-4833. Cells were plated at 4000 cells/well in 96 well microtiter plates and 24 h later drugs were added and serially diluted. The cells were incubated at 37° C. for 72 h, at which time a tetrazolium dye, XTT, containing phenazine methosulfate was added. A dehydrogenase enzyme in live cells reduced the XTT to a form that absorbs light at 450 nm, which could be quantitated spectrophotometrically. The greater the absorbance the greater the number of live cells. The results are expressed as an IC50, which is the drug concentration required to inhibit cell proliferation (i.e., absorbance at 450 nm) to 50% of that of untreated control cells.
(§1) Similarly, P338 murine leukemia cells were maintained in RPMI 1640 supplemented with 20% fetal bovine serum and 10 μM 2-mercaptoethanol. A camptothecin resistant subline, P388/CPT45, was selected for resistance to camptothecin and is over 1000-fold resistant to this compound (Woessner, et al. Oncol. Res. 1992, 4, 481-488).
(§2) In vitro cytotoxicity was assessed in tissue culture cells by MTS (3-(4,5-dimethylthiazol-2-yl)-5-(3-carboxymethoxyphenyl)-2-(4-sulphenyl)-2H-tetrazolium, inner salt) assay (Riss and Moravec, Mol. Biol. Cell 1992, 3 (Suppl.), 184a). Cells were plated at 8,000 cell/well in 96 well microtiter plates and 24 hours later serial dilutions of the test compounds were made and added to the cells. The cells were incubated at 37° C. for 72 hours, at which time the tetrazolium dye, MTS at 333 μg/ml (final concentration), in combination with the electron coupling agent phenazine methosulfate at 25 μM (final concentration) was added. A dehydrogenase enzyme in live cells reduces the MTS to a form that absorbs light at 492 nm which can be quantitated spectrophotometrically. The greater the absorbance the greater the number of live cells. The results are expressed as an IC50, which is the drug concentration required to inhibit cell proliferation (i.e., absorbance at 492 nm) to 50% of that of untreated control cells.
The cytotoxic activity for certain compounds of the present invention, in both parental P388 and the camptothecin-resistant P388/CPT45 cell lines are shown below in Table I.

A further experiment concerns P388/CPT45 cells. In words: Cytotoxicity in camptothecin-resistant P388/CPT45 cells relative to parental P388 (selectivity index R/S). Conditions: IC50 P388/CPT45 cells divided by IC50 parental P388 cells. Format: cell-based, murine.
Description: The present invention includes fluoro sugar and other sugar derivatives of indolopyrrolocarbazoles of formula (I), as defined above. […] Most importantly, the instant invention describes topo I active compounds, related to compounds disclosed in WO 98/07433 and co-pending U.S. application, Ser. No. 08/914566 (both herein incorporated by reference), which display a surprising and unexpected selectivity index when evaluated for cytotoxicity in certain cell lines which express normal levels of topo I required for cell proliferation, compared with cell lines that are deficient in or underexpress topo I. Said “selectivity index” (R/S) was generated by dividing the cytotoxic IC50 of a particular compound against a camptothecin-resistant murine leukemia cell line, P388/CPT45, by the IC50 generated when using the parent P388 cell line. […] A level of selectivity was judged to be advantageous and beneficial in, for example, modulating potential undesirable side effects and/or toxicity. The compounds of the present invention were selected from compounds generically disclosed in WO 98/07433 and co-pending U.S. patent application, Ser. No. 08/914566, on the basis of an unexpected and unpredictable selectivity index (see Table I and II). […] Simple changes in the substitution of the sugar portion or the indolopyrrolocarbazole portion of the present invention will change the selectivity. This change in selectivity is not predictable by one skilled in the art.
as §1, §2
The selectivity index (R/S) is defined as the ratio obtained by dividing the IC50 value obtained using P388/CPT45 cells by that obtained using parental P388 cells. The R/S ratios used to determine the relative topo I selectivity of selected compounds of this invention are shown below in Table I.

Molecules are shown by their SMILES. pEC50, pIC50: −log10 of the molar value.

In the case of `C[S+]([O-])C[C@H]1O[C@H](n2c3ccc(F)cc3c3c4c(c5c6cc(F)ccc6[nH]c5c32)C(=O)NC4=O)[C@H](O)[C@@H](O)[C@@H]1O` (stereo partly drawn) [Example 7], in experiment [1], the pEC50 (as a rule, the EC50 on a negative log10 scale, so that one unit is a factor of ten) was 8.00. Also, the pIC50 – broadly, the negative decadic logarithm of the IC50, by convention in mol/L – in experiment [2] was 7.12. Besides, the “Selectivity Index R/S” value with P388/CPT45 cells is on record as above 116.4.
Taken in the same sequence, the figures for `NC[C@H]1O[C@@H](n2c3ccc(F)cc3c3c4c(c5c6ccccc6sc5c32)C(=O)NC4=O)[C@H](O)[C@@H](O)[C@@H]1O` [Example 36] were 6.74, 5.05 and below 1.1.
In the same order, the values of `O=C1NC(=O)c2c1c1c3cc(F)c(F)cc3[nH]c1c1c2c2cc(F)c(F)cc2n1[C@@H]1O[C@H](CF)C[C@@H](F)[C@H]1O` [Example 17, 12-[3,6-Difluoro-3,4,6-trideoxy-β-D-allopyranosyl]-2,3,9,10-tetrafluoro-12,13-dihydro-5H-indolo[2,3-a]pyrrolo[3,4-c]carbazole-5,7(6H)-dione] are 6.35, 7.39 and 179.2.
Taken in the same sequence, the figures for `O=C1NC(=O)c2c1c1c3cc(F)c(F)cc3[nH]c1c1c2c2cc(F)c(F)cc2n1[C@@H]1O[C@H](CO)[C@@H](F)[C@H](O)[C@H]1O` [Example 28, 12-[4-Deoxy-4-fluoro-β-D-glucopyranosyl]-2,3,9,10-tetrafluoro-12,13-dihydro-5H-indolo[2,3-a]pyrrolo[3,4-c]carbazole-5,7(6H)-dione] were 7.30, 8.40 and 499.2.
As to `O=C1NC(=O)c2c1c1c3cc(F)c(F)cc3[nH]c1c1c2c2cc(F)c(F)cc2n1[C@@H]1O[C@H](CF)[C@@H](F)[C@H](O)[C@H]1O` [Example 22, 12-[4,6-Difluoro-4,6-dideoxy-β-D-glucopyranosyl]-2,3,9,10-tetrafluoro-12,13-dihydro-5H-indolo[2,3-a]pyrrolo[3,4-c]carbazole-5,7(6H)-dione], the pEC50 in experiment [1] is 7.10. Moreover, the negative logarithm of the IC50 (pIC50) in experiment [2] was 7.85. Also, in the experiment on P388/CPT45 cells, the “Selectivity Index R/S” value was determined as 287.7.
Taken in the same sequence, the figures for `O=C1NC(=O)c2c1c1c3cc(F)ccc3[nH]c1c1c2c2cc(F)ccc2n1[C@H]1O[C@H](CF)[C@@H](O)[C@H](O)[C@H]1O` [Example 39] were 7.00, 6.63 and 5.0.
In the same order, the values of `O=C1NC(=O)c2c1c1c3cc(F)ccc3[nH]c1c1c2c2cc(F)ccc2n1[C@@H]1O[C@H](CO)C[C@@H](O)[C@H]1O` [Example 20, 12-[4-Deoxy-β-D-allopyranosyl)-3,9-difluoro-12,13-dihydro-5H-indolo [2,3-a]pyrrolo[3,4-c]carbazole-5,7(6H)-dione] are 7.70, 8.70 and 201.2.
Turning to `O=C1NC(=O)c2c1c1c3cc(F)ccc3[nH]c1c1c2c2cc(F)ccc2n1[C@@H]1O[C@H](CF)C[C@H](O)[C@H]1O` [Example 15], the pEC50 in experiment [1] was 7.52. The pIC50 in experiment [2] is 8.30. The “Selectivity Index R/S” value in the experiment on P388/CPT45 cells is above 149.7.
As to `O=C1NC(=O)c2c1c1c3ccc(F)cc3[nH]c1c1c2c2ccc(F)cc2n1[C@@H]1O[C@H](CO)[C@@H](O)[C@H](O)[C@H]1O` [Example 37], the pEC50 in experiment [1] was 6.62. Moreover, the pIC50 in experiment [2] is 6.59. Besides, in the experiment on P388/CPT45 cells, the “Selectivity Index R/S” value is reported as 8.7.
On to `NC[C@H]1O[C@@H](n2c3cc(F)c(F)cc3c3c4c(c5c6cc(F)c(F)cc6sc5c32)C(=O)NC4=O)[C@H](O)[C@@H](O)[C@@H]1F` [Example 12, 12-[6-Amino-4,6-dideoxy-4-fluoro-β-D-glucopyranosyl]-2,3,9,10-tetrafluoro-5H,13H-benzo[b]thienyl[2,3-a]pyrrolo[3,4-c]carbazole-5,7(6H)-dione], for which, in experiment [1], the pEC50 was 7.70. For the same compound, the pIC50 in experiment [2] is 8.70. The “Selectivity Index R/S” value in the experiment with P388/CPT45 cells is 131.5.
Taken in the same sequence, the figures for `O=C1NC(=O)c2c1c1c3cc(F)ccc3[nH]c1c1c2c2cc(F)ccc2n1[C@@H]1O[C@H](CF)[C@H](O)[C@H](O)[C@H]1O` [Example 4, 12-[6-Deoxy-6-fluoro-β-D-galactopyranosyl]-3,9-difluoro-12,13-dihydro-5H-indolo[2,3-a]pyrrolo[3,4-c]carbazole-5,7(6H)-dione] were 6.66, 7.92 and 110.9.
In the same order, the values of `O=C1NC(=O)c2c1c1c3cc(F)ccc3[nH]c1c1c2c2cc(F)ccc2n1[C@@H]1O[C@H](CO)C(F)(F)[C@H](O)[C@H]1O` [Example 25, 12-[4,4-Difluoro-4-deoxy-β-D-glucopyranosyl]-3,9-difluoro-12,13-dihydro-5H-indolo[2,3-a]pyrrolo[3,4-c]carbazole-5,7(6H)-dione] are 8.00, 8.52 and 381.5.
